Test results reported in ChEMBL document CHEMBL1149220, “1-(2-Naphthyl)-1H-pyrazole-5-carboxylamides as potent factor Xa inhibitors. Part 2: A survey of P4 motifs” (Bioorg Med Chem Lett, 2004).

Experiments:
Coagulation factor X [1] = target: T1, Coagulation factor X (Homo sapiens, UniProt P00742); assay: Inhibitory concentration against human Coagulation factor X
Coagulation factor X [2] = target: T1, Coagulation factor X; assay: Binding affinity against Coagulation factor X
Coagulation factor X [3] = target: T1, Coagulation factor X; assay: In vitro anticoagulant potency measured in human plasma by thrombin generation (TG) assay expressed as 2 x TG; type: functional, cell-free
[4] = Volume of distribution in rat; type: ADME, organism-based; settings: in vivo
[5] = Clearance rate in rat; type: ADME, organism-based; settings: in vivo
[6] = Bioavailability in rat; type: ADME, organism-based; settings: in vivo
[7] = Half-life determined in rat; type: ADME, organism-based; settings: in vivo
[8] = target: T2, Vitamin K-dependent protein C (Homo sapiens, UniProt P04070); assay: Inhibitory concentration of compound was determined against activated protein C (aPC)
Kallikrein-1 = Kallikrein-1 (Homo sapiens, UniProt P06870); assay: Inhibitory concentration of compound was determined against kallikrein
Plasminogen = assay: Inhibitory concentration of compound was determined against Plasmin
Prothrombin = Prothrombin (Homo sapiens, UniProt P00734); assay: Inhibitory concentration of compound was determined against thrombin
[9] = target: Tissue-type plasminogen activator (Homo sapiens, UniProt P00750); assay: Inhibitory concentration against tissue type plasminogen activator
Serine protease 1 = Serine protease 1 (Homo sapiens, UniProt P07477); assay: Inhibitory concentration of compound was determined against trypsin
[10] = target: T2, Vitamin K-dependent protein C; assay: Inhibitory concentration of compound was determined against activated protein C

Chain of Tissue-type plasminogen activator (P00750 whole entry): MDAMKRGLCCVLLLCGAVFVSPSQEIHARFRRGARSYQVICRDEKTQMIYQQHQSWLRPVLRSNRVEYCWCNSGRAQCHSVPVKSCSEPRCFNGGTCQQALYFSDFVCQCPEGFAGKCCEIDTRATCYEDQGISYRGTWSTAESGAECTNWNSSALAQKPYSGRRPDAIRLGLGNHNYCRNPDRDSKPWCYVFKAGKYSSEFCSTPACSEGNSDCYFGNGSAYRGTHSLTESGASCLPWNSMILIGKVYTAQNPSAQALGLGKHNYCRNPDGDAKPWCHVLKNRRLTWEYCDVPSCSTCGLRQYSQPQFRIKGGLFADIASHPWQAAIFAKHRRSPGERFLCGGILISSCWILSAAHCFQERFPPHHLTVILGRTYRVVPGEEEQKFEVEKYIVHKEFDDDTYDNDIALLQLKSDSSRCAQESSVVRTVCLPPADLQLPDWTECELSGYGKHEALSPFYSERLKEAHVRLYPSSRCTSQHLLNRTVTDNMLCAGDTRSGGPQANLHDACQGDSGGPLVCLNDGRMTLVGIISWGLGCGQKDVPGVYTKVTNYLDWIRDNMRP
Chain of Plasminogen (Q01177 97-581 limits assumed): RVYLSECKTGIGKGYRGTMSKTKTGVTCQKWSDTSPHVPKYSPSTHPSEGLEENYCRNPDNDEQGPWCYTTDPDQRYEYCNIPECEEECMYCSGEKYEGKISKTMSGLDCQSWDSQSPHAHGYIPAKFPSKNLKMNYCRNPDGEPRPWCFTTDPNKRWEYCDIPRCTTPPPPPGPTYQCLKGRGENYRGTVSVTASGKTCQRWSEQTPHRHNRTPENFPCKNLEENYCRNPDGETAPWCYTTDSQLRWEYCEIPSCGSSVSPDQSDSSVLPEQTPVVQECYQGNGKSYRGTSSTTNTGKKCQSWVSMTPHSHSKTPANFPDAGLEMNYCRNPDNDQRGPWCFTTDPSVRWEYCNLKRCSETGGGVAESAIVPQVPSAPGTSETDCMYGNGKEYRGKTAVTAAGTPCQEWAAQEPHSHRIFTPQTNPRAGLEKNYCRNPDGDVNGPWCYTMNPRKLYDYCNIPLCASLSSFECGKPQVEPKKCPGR
Chain of Plasminogen (Q01177 582-812 limits assumed): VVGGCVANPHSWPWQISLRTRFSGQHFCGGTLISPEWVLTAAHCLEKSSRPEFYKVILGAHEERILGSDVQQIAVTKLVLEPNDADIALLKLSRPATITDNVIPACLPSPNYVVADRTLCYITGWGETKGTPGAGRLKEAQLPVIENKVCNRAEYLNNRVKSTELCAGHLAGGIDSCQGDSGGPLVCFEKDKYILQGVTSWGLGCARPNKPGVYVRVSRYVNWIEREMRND
Chain of Kallikrein-1 (P06870 whole entry): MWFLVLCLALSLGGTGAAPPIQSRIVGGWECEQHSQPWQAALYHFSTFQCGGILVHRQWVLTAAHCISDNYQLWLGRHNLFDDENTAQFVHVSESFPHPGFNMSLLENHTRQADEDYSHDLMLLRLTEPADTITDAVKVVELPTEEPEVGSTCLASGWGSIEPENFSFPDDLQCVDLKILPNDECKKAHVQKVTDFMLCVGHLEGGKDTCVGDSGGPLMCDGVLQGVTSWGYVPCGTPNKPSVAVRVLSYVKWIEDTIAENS
T1 sequence (P00742 41-179 limits assumed): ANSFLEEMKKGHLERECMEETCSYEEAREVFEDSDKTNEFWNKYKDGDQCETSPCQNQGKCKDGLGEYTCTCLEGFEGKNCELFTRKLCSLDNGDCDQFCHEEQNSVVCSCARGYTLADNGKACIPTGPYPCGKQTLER
T1 sequence (P00742 235-488 limits assumed): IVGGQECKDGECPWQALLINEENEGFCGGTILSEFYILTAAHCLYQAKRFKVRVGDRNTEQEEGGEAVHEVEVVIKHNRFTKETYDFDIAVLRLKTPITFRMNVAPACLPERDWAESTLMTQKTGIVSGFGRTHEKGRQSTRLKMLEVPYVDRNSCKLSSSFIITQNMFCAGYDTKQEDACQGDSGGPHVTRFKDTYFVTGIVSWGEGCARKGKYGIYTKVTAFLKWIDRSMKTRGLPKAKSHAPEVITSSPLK
T2 sequence (P04070 43-197 limits assumed): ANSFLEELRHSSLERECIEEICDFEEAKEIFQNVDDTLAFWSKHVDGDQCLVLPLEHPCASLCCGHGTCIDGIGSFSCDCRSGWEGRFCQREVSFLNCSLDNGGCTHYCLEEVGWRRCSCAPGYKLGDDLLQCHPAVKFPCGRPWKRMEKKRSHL
T2 sequence (P04070 212-461 limits assumed): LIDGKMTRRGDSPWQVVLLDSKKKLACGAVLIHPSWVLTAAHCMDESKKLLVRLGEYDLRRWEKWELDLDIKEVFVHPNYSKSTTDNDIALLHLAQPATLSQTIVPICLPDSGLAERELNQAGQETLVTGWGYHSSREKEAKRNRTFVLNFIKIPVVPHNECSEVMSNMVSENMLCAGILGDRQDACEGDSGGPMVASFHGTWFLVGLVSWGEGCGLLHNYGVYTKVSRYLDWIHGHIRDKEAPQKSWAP
Chain of Serine protease 1 (P07477 whole entry): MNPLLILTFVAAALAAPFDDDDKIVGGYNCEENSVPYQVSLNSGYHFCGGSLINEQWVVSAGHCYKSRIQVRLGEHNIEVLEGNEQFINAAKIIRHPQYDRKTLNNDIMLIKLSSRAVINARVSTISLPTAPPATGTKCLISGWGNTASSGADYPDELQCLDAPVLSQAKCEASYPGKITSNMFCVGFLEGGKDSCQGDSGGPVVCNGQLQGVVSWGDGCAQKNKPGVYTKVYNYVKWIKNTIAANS

SMILES | IC50 (Coagulation factor X [1]) | Ki (Coagulation factor X [2]) | Activity (Coagulation factor X [3]) | other results
Cc1cc(C(=O)Nc2ccc(N3CCOCCC3=O)cc2F)n(-c2cc3ccccc3cc2S(C)(=O)=O)n1 | 23 nM | – | – | –
Cc1cc(C(=O)Nc2ccc(-c3ccccc3S(C)(=O)=O)cc2F)n(-c2cc3ccccc3cc2F)n1 | 14 nM | – | – | –
Cc1cc(C(=O)Nc2ncc(-c3ccccc3S(N)(=O)=O)cn2)n(-c2cc3ccccc3cc2F)n1 | 39 nM | – | – | –
Cc1cc(C(=O)Nc2ccc(N3CCCC3=O)cc2F)n(-c2cc3ccccc3cc2S(C)(=O)=O)n1 | 58 nM | – | – | –
Cc1cc(C(=O)Nc2ccc(-c3ccccc3S(C)(=O)=O)cc2F)n(-c2cc3ccccc3cc2S(C)(=O)=O)n1 | 9 nM | 1.7 nM | 1 µM | Vd [4]: 2.6 L/kg; clearance [5]: 41.2 mL/min/kg; bioavailability [6]: 18%; half-life [7]: 0.7 h; IC50 [8]: > 10000 nM; IC50 (Kallikrein-1): > 10000 nM; IC50 (Plasminogen): > 10000 nM; IC50 (Prothrombin): > 10000 nM; IC50 [9]: > 10000 nM; IC50 (Serine protease 1): > 10000 nM
Cc1cc(C(=O)Nc2ccc(-c3ccccc3S(C)(=O)=O)cc2F)n(-c2ccc3cc(Cl)ccc3c2)n1 | 6 nM | 1.8 nM | > 5 µM | –
Cc1cc(C(=O)Nc2ccc(N3CCCCCC3=O)cc2F)n(-c2cc3ccccc3cc2S(C)(=O)=O)n1 | 47 nM | – | – | –
Cc1cc(C(=O)Nc2ccc(-n3ccnc3CN)cc2F)n(-c2cc3ccccc3cc2F)n1 | 13 nM | – | – | –
Cc1cc(C(=O)Nc2ccc(N3CCCCC3=O)cc2F)n(-c2cc3ccccc3cc2S(C)(=O)=O)n1 | 27 nM | – | – | –
Cc1cc(C(=O)Nc2ccc(-c3ccccc3CN)cc2F)n(-c2cc3ccccc3cc2F)n1 | 2 nM | 2.4 nM | 2.2 µM | Vd [4]: 11 L/kg; clearance [5]: 51.8 mL/min/kg; bioavailability [6]: 22.8%; half-life [7]: 2.5 h; IC50 [8]: > 10000 nM; IC50 (Kallikrein-1): > 10000 nM; IC50 (Plasminogen): > 10000 nM; IC50 (Prothrombin): > 10000 nM; IC50 [9]: > 10000 nM; IC50 (Serine protease 1): > 10000 nM
Cc1cc(C(=O)Nc2ccc(-n3ccnc3CN(C)C)cc2F)n(-c2cc3ccccc3cc2S(C)(=O)=O)n1 | 8 nM | 3.2 nM | 1.7 µM | –
Cc1cc(C(=O)Nc2ccc(N3CCNCC3=O)cc2F)n(-c2cc3ccccc3cc2S(C)(=O)=O)n1 | 41 nM | – | – | –
Cc1cc(C(=O)Nc2ccc(-c3ccccc3S(N)(=O)=O)cc2F)n(-c2cc3ccccc3cc2S(C)(=O)=O)n1 | 5 nM | 1.1 nM | 4.5 µM | –
Cc1cc(C(=O)Nc2ccc(-c3ccccc3S(N)(=O)=O)cc2F)n(-c2cc3ccccc3cc2F)n1 | 29 nM | – | – | –
Cc1cc(C(=O)Nc2ncc(-c3ccccc3S(N)(=O)=O)cn2)n(-c2ccc3cc(Cl)ccc3c2)n1 | 7 nM | 2.5 nM | 2 µM | –
Cc1cc(C(=O)Nc2ccc(-c3ccccc3CN(C)C)cc2F)n(-c2cc3ccccc3cc2S(C)(=O)=O)n1 | 7 nM | 2.4 nM | 0.64 µM | Vd [4]: 27.3 L/kg; clearance [5]: 114 mL/min/kg; bioavailability [6]: 18%; half-life [7]: 2.8 h; IC50 [8]: > 10000 nM; IC50 (Kallikrein-1): > 10000 nM; IC50 (Plasminogen): > 10000 nM; IC50 (Prothrombin): > 10000 nM; IC50 [9]: > 10000 nM; IC50 (Serine protease 1): > 10000 nM
Cc1cc(C(=O)Nc2ccc(-c3ccccc3S(N)(=O)=O)cn2)n(-c2cc3ccccc3cc2F)n1 | 81 nM | – | – | –
Cc1cc(C(=O)Nc2ccc(-c3ccccc3S(N)(=O)=O)cc2F)n(-c2ccc3cc(Cl)ccc3c2)n1 | 3 nM | 3.4 nM | > 5 µM | –
Cc1cc(C(=O)Nc2ccc(N3CCOCC3=O)cc2F)n(-c2ccc3cc(Cl)ccc3c2)n1 | 1 nM | 0.5 nM | 5 µM | –
Cc1cc(C(=O)Nc2ccc(N3CCOCC3=O)cc2F)n(-c2cc3ccccc3cc2F)n1 | 2 nM | 0.5 nM | > 5 µM | –
Cc1cc(C(=O)Nc2ccc(N3CCOCC3=O)cc2F)n(-c2cc3ccccc3cc2S(C)(=O)=O)n1 | 2 nM | 0.8 nM | 0.44 µM | Vd [4]: 0.8 L/kg; clearance [5]: 16.8 mL/min/kg; bioavailability [6]: 19.3%; half-life [7]: 0.5 h; IC50 [10]: > 10000 nM; IC50 (Kallikrein-1): > 10000 nM; IC50 (Plasminogen): > 10000 nM; IC50 (Prothrombin): > 10000 nM; IC50 [9]: > 10000 nM; IC50 (Serine protease 1): > 10000 nM
Cc1cc(C(=O)Nc2ccc(-c3ccccc3S(N)(=O)=O)cn2)n(-c2cc3ccccc3cc2S(C)(=O)=O)n1 | 46 nM | – | – | –
Cc1cc(C(=O)Nc2ccc(N3CCNCCC3=O)cc2F)n(-c2cc3ccccc3cc2S(C)(=O)=O)n1 | 680 nM | – | – | –

Further lines, with some results ahead:

IC50 (Coagulation factor X [1]) | Ki (Coagulation factor X [2]) | Activity (Coagulation factor X [3]) | SMILES | other results
40 nM | – | – | Cc1cc(C(=O)Nc2ccc(-c3ccncc3)cc2F)n(-c2ccc3cc(Cl)ccc3c2)n1 | –
15 nM | – | – | Cc1cc(C(=O)Nc2ccc(-n3ccnc3C)cc2F)n(-c2ccc3cc(Cl)ccc3c2)n1 | –
3 nM | 1.1 nM | > 5 µM | Cc1cc(C(=O)Nc2ccc(N3CCCCC3=O)cc2)n(-c2ccc3cc(Cl)ccc3c2)n1 | –
2100 nM | – | – | Cc1cc(C(=O)Nc2ccc(-n3nccn3)cc2)n(-c2ccc3cc(Cl)ccc3c2)n1 | –
75 nM | – | – | Cc1cc(C(=O)Nc2ccc(-c3cccc(C(=N)N)c3)cc2)n(-c2ccc3cc(Cl)ccc3c2)n1 | –
– | 1.4 nM | > 5 µM | Cc1cc(C(=O)Nc2ccc(-c3ccccc3S(C)(=O)=O)cc2)n(-c2ccc3cc(Cl)ccc3c2)n1 | –
94 nM | – | – | Cc1cc(C(=O)Nc2ccc(-c3ccccn3)cc2F)n(-c2ccc3cc(Cl)ccc3c2)n1 | –
380 nM | – | – | Cc1cc(C(=O)Nc2ccc(-c3cccc(C(=N)N(C)C)c3)cc2)n(-c2ccc3cc(Cl)ccc3c2)n1 | –
66 nM | – | – | Cc1cc(C(=O)Nc2ccc(C(=O)N3CCCCC3)cc2)n(-c2ccc3cc(Cl)ccc3c2)n1 | –
6 nM | 1.8 nM | > 5 µM | Cc1cc(C(=O)Nc2ccc(C(=O)N3CCCC3)cc2)n(-c2ccc3cc(Cl)ccc3c2)n1 | –
5 nM | 1.8 nM | 2 µM | Cc1cc(C(=O)Nc2ccc(-c3ccccc3CN(C)C)cc2)n(-c2ccc3cc(Cl)ccc3c2)n1 | –
108 nM | – | – | Cc1cc(C(=O)Nc2ccc(-n3ccnc3)cc2)n(-c2ccc3cc(Cl)ccc3c2)n1 | –
39 nM | – | – | Cc1cc(C(=O)Nc2ccc(-c3ccccc3CN)cc2)n(-c2ccc3cc(Cl)ccc3c2)n1 | –
130 nM | – | – | Cc1cc(C(=O)Nc2ccc(N3CCNCCC3=O)cc2)n(-c2ccc3cc(Cl)ccc3c2)n1 | –
26 nM | – | – | Cc1cc(C(=O)Nc2ccc(-c3ccccc3C(=N)N(C)C)cc2)n(-c2ccc3cc(Cl)ccc3c2)n1 | –
2 nM | 1.5 nM | 1.7 µM | Cc1cc(C(=O)Nc2ccc(-c3ccccc3CN(C)C)cc2F)n(-c2ccc3cc(Cl)ccc3c2)n1 | Vd [4]: 22.1 L/kg; clearance [5]: 35.7 mL/min/kg; bioavailability [6]: 35.2%; half-life [7]: 7.2 h; IC50 [8]: > 10000 nM; IC50 (Kallikrein-1): 9700 nM; IC50 (Plasminogen): > 10000 nM; IC50 (Prothrombin): 5500 nM; IC50 [9]: > 10000 nM; IC50 (Serine protease 1): > 10000 nM

IC50 (Coagulation factor X [1]) | Ki (Coagulation factor X [2]) | Activity (Coagulation factor X [3]) | SMILES | other results
– | – | 3 µM | Cc1cc(C(=O)Nc2ccc(-n3ccnc3CN(C)C)cc2F)n(-c2ccc3cc(Cl)ccc3c2)n1 | –
8 nM | 2.9 nM | > 5 µM | Cc1cc(C(=O)Nc2ccc(-n3ccnc3C)cc2)n(-c2ccc3cc(Cl)ccc3c2)n1 | –
112 nM | – | – | Cc1cc(C(=O)Nc2ccc(-n3ccnn3)cc2)n(-c2ccc3cc(Cl)ccc3c2)n1 | –
13 nM | – | > 5 µM | Cc1cc(C(=O)Nc2ccc(C(=O)N(C)C)cc2)n(-c2ccc3cc(Cl)ccc3c2)n1 | –
22 nM | – | 5 µM | Cc1cc(C(=O)Nc2ccc(N3CCCN(C)CC3)cc2)n(-c2ccc3cc(Cl)ccc3c2)n1 | –
166 nM | – | – | Cc1cc(C(=O)Nc2ccc(N3CCN(C)CC3)cc2)n(-c2ccc3cc(Cl)ccc3c2)n1 | –
88 nM | – | – | Cc1cc(C(=O)Nc2ccc(N3CCOCC3)cc2)n(-c2ccc3cc(Cl)ccc3c2)n1 | –
92 nM | – | – | Cc1cc(C(=O)Nc2ccc(-c3cccnc3)cc2F)n(-c2ccc3cc(Cl)ccc3c2)n1 | –
1 nM | 0.3 nM | 3 µM | Cc1cc(C(=O)Nc2ccc(N3CCOCC3=O)cc2)n(-c2ccc3cc(Cl)ccc3c2)n1 | –
215 nM | – | – | Cc1cc(C(=O)Nc2ccc(-n3cccn3)cc2)n(-c2ccc3cc(Cl)ccc3c2)n1 | –
36 nM | – | – | Cc1cc(C(=O)Nc2ccc(N3CCCNCC3)cc2)n(-c2ccc3cc(Cl)ccc3c2)n1 | –
131 nM | – | – | Cc1cc(C(=O)Nc2ccc(N3CCCCC3)cc2)n(-c2ccc3cc(Cl)ccc3c2)n1 | –
– | – | > 5 µM | Cc1cc(C(=O)Nc2ccc(-c3ccccc3S(N)(=O)=O)cc2)n(-c2ccc3cc(Cl)ccc3c2)n1 | –
70 nM | – | – | Cc1cc(C(=O)Nc2ccc(-c3cccc(CN)c3)cc2)n(-c2ccc3cc(Cl)ccc3c2)n1 | –
5 nM | 1.9 nM | 2 µM | Cc1cc(C(=O)Nc2ccc(-c3ccccc3S(N)(=O)=O)cn2)n(-c2ccc3cc(Cl)ccc3c2)n1 | –
8 nM | 2.8 nM | > 5 µM | Cc1cc(C(=O)Nc2ccc(-n3ccnc3CN(C)C)cc2)n(-c2ccc3cc(Cl)ccc3c2)n1 | –
